Consider 30 compounds from patent US20050282818A1, “Ubiquitin ligase inhibitors” (Rigel Pharmaceuticals, Inc., priority 2004, published 2005).

By IC50 is commonly meant the concentration that inhibits the measured activity by half. A lower IC50 goes with higher potency.

Chain of APC11/APC2 (Q9NYG5 whole entry): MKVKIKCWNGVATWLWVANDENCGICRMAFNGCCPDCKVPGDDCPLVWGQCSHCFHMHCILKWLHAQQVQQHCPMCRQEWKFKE
Chain of APC11/APC2 (Q9UJX6 whole entry): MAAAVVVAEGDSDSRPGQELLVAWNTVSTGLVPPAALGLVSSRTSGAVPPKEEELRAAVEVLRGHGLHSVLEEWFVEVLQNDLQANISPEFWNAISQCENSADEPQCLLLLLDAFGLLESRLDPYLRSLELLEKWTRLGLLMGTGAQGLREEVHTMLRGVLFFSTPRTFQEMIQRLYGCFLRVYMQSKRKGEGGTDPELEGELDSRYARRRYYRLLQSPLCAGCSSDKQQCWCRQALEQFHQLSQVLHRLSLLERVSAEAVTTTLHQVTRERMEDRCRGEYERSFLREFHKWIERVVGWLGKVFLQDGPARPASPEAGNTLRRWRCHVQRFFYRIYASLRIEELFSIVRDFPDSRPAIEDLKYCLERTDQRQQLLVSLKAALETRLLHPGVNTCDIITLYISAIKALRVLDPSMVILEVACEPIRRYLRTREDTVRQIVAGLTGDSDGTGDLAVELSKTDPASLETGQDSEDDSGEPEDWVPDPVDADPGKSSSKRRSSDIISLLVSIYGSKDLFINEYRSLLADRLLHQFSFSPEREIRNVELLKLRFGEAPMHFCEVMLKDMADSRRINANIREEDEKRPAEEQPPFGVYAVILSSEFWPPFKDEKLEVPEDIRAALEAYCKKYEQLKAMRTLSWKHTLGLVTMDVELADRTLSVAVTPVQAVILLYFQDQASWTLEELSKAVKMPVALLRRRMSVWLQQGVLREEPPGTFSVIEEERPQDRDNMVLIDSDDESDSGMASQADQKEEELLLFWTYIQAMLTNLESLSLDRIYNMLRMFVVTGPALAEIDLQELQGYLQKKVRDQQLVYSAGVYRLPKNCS

One assay relates to ICAM-1 expression in A549 cells. Briefly: ICAM assay (IL-1 induced ICAM-1/CD54 expression in A549 cells). The conditions noted are these: Homo sapiens, A549, ICAM assay. The format is cell-based, human. Put shortly:
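Luminescent immunostaining (anti-CD54, then anti-mouse IgG, 1 h) quantifies ICAM-1 on A549 cells induced 4 h at 37° C by IL-1 (4 μl of 25 ng/ml added). Compound is added 1 h before the cytokine to cells plated overnight at 10,000 per well.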
For the compound `O=[N+]([O-])c1ccc(SCCO)c2nonc12` [compound 150, 2-[(7-nitro-2,1,3-benzoxadiazol-4-yl)thio]ethanol], the IC50 is no less than 20 µM. The same measure, in the same setting: the figure for `COC(=O)c1ccc(NS(=O)(=O)c2ccc(F)c3nonc23)cc1` [compound 167, methyl 4-{[(7-fluoro-2,1,3-benzoxadiazol-4-yl)sulfonyl]amino}benzoate] is no less than 20 µM; for `N#Cc1cccnc1N1CCN(S(=O)(=O)c2ccc(Cl)c3nonc23)CC1` [compound 170, 2-{4-[(7-chloro-2,1,3-benzoxadiazol-4-yl)sulfonyl]piperazin-1-yl}nicotinomtrile] it is no less than 20 µM; for `COC(=O)c1ccc(NS(=O)(=O)c2c(Cl)ccc3nonc23)cc1` [compound 178, methyl 4-{[(5-chloro-2,1,3-benzoxadiazol-4-yl)sulfonyl]amino}benzoate] it is no less than 20 µM. In the case of `N#Cc1ccccc1N1CCN(S(=O)(=O)c2c(Cl)ccc3nonc23)CC1` [compound 180, 2-{4-[(5-chloro-2,1,3-benzoxadiazol-4-yl)sulfonyl]piperazin-1-yl}benzonitrile], the IC50 was no less than 20 µM.

`O=S(=O)(c1ccc(Cl)c2nonc12)N1CCN(c2ncccn2)CC1` [compound 184, 4-chloro-7-[(4-pyrimidin-2-ylpiperazin-1-yl)sulfonyl]-2,1,3-benzoxadiazole] had a half-maximal inhibitory concentration (IC50) of no less than 20 µM. Compound `O=S(=O)(c1ccc(Cl)c2nonc12)N1CCN(c2ccccc2)CC1` [compound 186, 4-chloro-7-[(4-phenylpiperazin-1-yl)sulfonyl]-2,1,3-benzoxadiazole] had an IC50 of no less than 20 µM. With `O=c1[nH]c2ccccc2n1C1CCN(S(=O)(=O)c2ccc(Cl)c3nonc23)CC1` [compound 188, 1-{1-[(7-chloro-2,1,3-benzoxadiazol-4-yl)sulfonyl]piperidin-4-yl}-1,3-dihydro-2H-benzimidazol-2-one], the IC50 is no less than 20 µM.

As to `CC1CC(C)CN(S(=O)(=O)c2ccc(Cl)c3nonc23)C1` (stereo not drawn) [compound 192, 4-chloro-7-[(3,5-dimethylpiperidin-1-yl)sulfonyl]-2,1,3-benzoxadiazole], the IC50 was no less than 20 µM. `O=S(=O)(c1c(Cl)ccc2nonc12)N1CCN(c2cnccn2)CC1` [compound 200, 5-chloro-4-[(4-pyrazin-2-ylpiperazin-1-yl)sulfonyl]-2,1,3-benzoxadiazole] showed an IC50 of no less than 20 µM. `CC(=O)N1CCN(S(=O)(=O)c2c(Cl)ccc3nonc23)CC1` [compound 201, 4-[(4-acetylpiperazin-1-yl)sulfonyl]-5-chloro-2,1,3-benzoxadiazole] came in with an IC50 of no less than 20 µM. As for `Cc1cccc(N2CCN(S(=O)(=O)c3c(Cl)ccc4nonc34)CC2)n1` [compound 202, 5-chloro-4-{[4-(6-methylpyridin-2-yl)piperazin-1-yl]sulfonyl}-2,1,3-benzoxadiazole], the IC50 was no less than 20 µM.

With `N#Cc1ccc(N2CCN(S(=O)(=O)c3c(Cl)ccc4nonc34)CC2)nc1` [compound 209, 6-{4-[(5-chloro-2,1,3-benzoxadiazol-4-yl)sulfonyl]piperazin-1-yl}nicotinonitrile], the IC50 was no less than 20 µM. Regarding `CC(=O)N1CCN(S(=O)(=O)c2c(Sc3cccc4cccnc34)ccc3nonc23)CC1` [compound 214, 8-({4-[(4-acetylpiperazin-1-yl)sulfonyl]-2,1,3-benzoxadiazol-5-yl}thio)quinoline], the half-maximal inhibitory concentration (IC50) is no less than 20 µM. Regarding `O=S(=O)(Nc1ccc2cn[nH]c2c1)c1ccc(Cl)c2nonc12` [compound 220, 7-chloro-N-1 H-indazol-6-yl-2,1,3-benzoxadiazole-4-sulfonamide], the IC50 is no less than 20 µM. The same measure, in the same setting: for `O=S(=O)(c1ccc(Sc2ccc(O)cc2)c2nonc12)N1CCC(Oc2ncccn2)CC1` [compound 226, 4-[(7-{[4-(pyrimidin-2-yloxy)piperidin-1-yl]sulfonyl}-2,1,3-benzaxadiazol-4-yl)thio]phenol] the value was no less than 20 µM.

Regarding `O=S(=O)(Nc1ccc(F)c(F)c1)c1ccc(Cl)c2nonc12` [compound 262, 7-chloro-N-(3,4-difluorophenyl)-2,1,3-benzoxadiazole-4-sulfonamide], the IC50 is no less than 20 µM. On the same count and under the same terms, for `O=S(=O)(Nc1cccc(F)c1)c1ccc(Cl)c2nonc12` [compound 263, 7-chloro-N-(3-fluorophenyl)-2,1,3-benzoxadiazole-4-sulfonamide] the value was no less than 20 µM.

A further assay deals with APC11/APC2 (Homo sapiens, UniProt Q9NYG5+Q9UJX6). Briefly: APC-11/APC-2 ligase assay (APC auto ubiquitination). The format is biochemical. The conditions noted are these: APC assay. An outline of the steps:
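His-tagged APC was captured on nickel plates with human E1 (5 ng/well), UbcH5c (20 ng/well), APC (100 ng/well) and Flag-ubiquitin (100 ng/well) in a Tris pH 7.6 reaction buffer containing 2.5 mM ATP, for 1 hour at room temperature. Read-out was anti-Flag/HRP chemiluminescence. IC50 was set against a DMSO control, typically from 6 or 8 concentrations.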
As for `O=[N+]([O-])c1ccc(Sc2cccc3cccnc23)c2nonc12` [compound 5, 8-[(7-Nitro-2,1,3-benzoxadiazol-4-yl)thio]quinoline], the IC50 lay within 1 to 20 µM. `O=[N+]([O-])c1ccc(Oc2c(Cl)cc(S(=O)(=O)Nc3cccc4nsnc34)cc2Cl)c(Cl)c1` [compound 73, N-2,1,3-benzothiadiazol-4-yl-3,5-dichloro-4-(2-chloro-4-nitrophenoxy)benzenesulfonamide]: the IC50 lay in the range of 1 to 20 µM. Compound `O=S(=O)(Nc1cccc2nonc12)c1ccc(Oc2ncc(C(F)(F)F)cc2Cl)cc1` [compound 78, N-2,1,3-benzoxadiazol-4-yl-4-{[3-chloro-5-(trifluoromethyl)pyridin-2-yl]oxy}benzenesulfonamide] yielded an IC50 of 1 to 20 µM. As for `O=[N+]([O-])c1ccc(N2CCN(c3cc(C(F)(F)F)ccn3)CC2)c2nonc12` [compound 90, 4-nitro-7-{4-[4-(trifluoromethyl)pyridin-2-yl]piperazin-1-yl}-2,1,3-benzoxadiazole], the IC50 lay in the range of 1 to 20 µM. Compound `O=S(=O)(Nc1cccc2nsnc12)c1ccc(Oc2ccccc2)cc1` [compound 94, N-2,1,3-benzothiadiazol-4-yl-4-phenoxybenzenesulfonamide] gave an IC50 of 1 to 20 µM. The compound `O=[N+]([O-])c1ccc(N2CCN(c3ncccn3)CC2)c2nonc12` [compound 109, 4-nitro-7-(1,3-(pyrimidin-2-yl)piperazin-1-yl)-2,1,3-benzoxadiazole] yielded an IC50 of 1 to 20 µM. On the same count and under the same terms, the figure for `O=[N+]([O-])c1ccc(Oc2ccc(S(=O)(=O)Nc3cccc4nonc34)cc2Cl)c(C(F)(F)F)c1` [compound 114, N-2,1,3-benzoxadiazol-4-yl-3-chloro-4-[4-nitro-2-(trifluoromethyl)phenoxy]benzenesulfonamide] is 1 to 20 µM; for `N#Cc1ccc(N2CCN(c3ccc([N+](=O)[O-])c4nonc34)CC2)nc1` [compound 121, 6-[4-(7-nitro-2,1,3-benzoxadiazol-4-yl)piperazin-1-yl]nicotinonitrile] it is 1 to 20 µM. In the case of `Cc1ccc(N2CCN(c3ccc([N+](=O)[O-])c4nonc34)CC2)cc1C` [compound 140, 4-[4-(3,4-dimethylphenyl)piperazin-1-yl]-7-nitro-2,1,3-benzoxadiazole], the IC50 was in the range of 1 to 20 µM. The same measure, in the same setting: for `N#CC1(c2ccccc2)CCN(c2ccc([N+](=O)[O-])c3nonc23)CC1` [compound 141, 1-(7-nitro-2,1,3-benzoxadiazol-4-yl)-4-phenylpiperidine-4-carbonitrile] the value was 1 to 20 µM. On to `O=C(c1ccc(F)cc1)C1CCN(c2ccc([N+](=O)[O-])c3nonc23)CC1` [compound 142, (4-fluorophenyl)[1-(7-nitro-2,1,3-benzoxadiazol-4-yl)piperidin-4-yl]methanone], for which the IC50 is 1 to 20 µM. In turn, `CC1CC(C)CN(c2ccc([N+](=O)[O-])c3nonc23)C1` (stereo not drawn) [compound 144, 4-(3,5-dimethylpiperidin-1-yl)-7-nitro-2,1,3-benzoxadiazole] came in with an IC50 of 1 to 20 µM.
